According to patent US20040152903A1, “6-chloro-3-pyridylmethylpropylamine derivatives, preparation process thereof and bactericides” (priority 2004, published 2004):

Legend:
[1] = tested on: Rhynchosporium secalis; assay: Antifungal activity test (PDA plate, hypha extension inhibition); assay type: cell-based; conditions: 100 ppm in PDA culture medium
Procedure: (§1) (Antifungal Activity Test against Various Pathogenic Fungi) For each of the compounds I-1 to 27 of the present invention and the comparative compounds (a) to (d), (m-1) and (m-3), 20 mg was weighed and dissolved in 2 ml of dimethylsulfoxide, and a double dilution row in 10 steps was prepared by further using dimethylsulfoxide. A 0.6 ml portion of these solutions was each added to 60 ml of a PDA culture medium (potato-dextrose-agar culture medium) at about 60° C., they were well mixed in a 100 ml Erlenmeyer flask, the solution was poured into a schale and was solidified, the plate culture media containing the compounds according to the present invention with final concentrations of 100, 50.0, 25.0, 12.5, 6.3, 3.2, 1.6, 0.8, 0.4 and 0.2 mg/l were prepared. On the other hand, the specimen bacteria cultured on the plate culture media beforehand was punched by a 4 mm diameter cork borer, and was inoculated on the plate culture media containing the aforementioned chemicals. After the inoculation, the bacteria were cultured at the optimum growth temperature of each bacterium for 1 to 7 days (for this optimum growth temperature, LIST OF CULTURES 1996 Microorganisms 10th edition published by Fermentation Research Institute (Foundation) can be referred to.), and the growth of the bacteria was measured by the diameter of a colony. […]

[2] = tested on: Venturia inaequalis; assay: as above; assay type: cell-based; conditions: 3.2 ppm in PDA culture medium
Procedure: as §1

[3] = tested on: wheat powdery mildew; assay: Permeable mobility fungicidal effect test in leaf section of wheat powdery mildew; assay type: in vivo; conditions: length of non-contracted area relative to compound (m-2); 200 mg/l, 0.5 μl applied to wheat leaf (Abukumawase)
Procedure: (Permeable Mobility Fungicidal Effect Test in Leaf Section of Wheat Powdery Mildew) In the test example 4, permeable mobility fungicidal effect test was performed on the leaf section of wheat powdery mildew with regard to the compounds I-1 to 27 according to the present invention and the comparative compounds (a) to (d), and (m-1) to (m-3) with the method described later. <Test Method> The compound in the form of a wettable powder obtained by Formulation 2 or the like was diluted and suspended with water to a predetermined concentration (200 mg/l), and 0.5 μl of the suspension was applied to a 2 to 3 cm leaf portion from the root of the three leaves of the 4th to 4.5th leaf period wheat (variety: Abukumawase) cultured by using a square plastic pot (size: 6.4 cm×6.4 cm). After these wheat leaves were subject to still standing in a glass house (temperature: 20 to 24° C., relative humidity: 20 to 70 RH) for one day, the spores of wheat powdery mildew were inoculated over the leaves by sprinkling the same with a brush from an infected leaf, a disease was contracted in the same glass house. The length of a non-contracted area generated from the applied portion to the direction of the leaf top was measured, and a relative mobility to the compound (m-2) was calculated with the following calculation […] by using the comparative compound (m-2) as a standard compound. Relative mobility=(Length of non-contracted area in each chemical section (cm)/Length of non-contracted area of compound (m-2) (cm)) (Equation 4)

Row | SMILES | Growth Inhibition R.s (100) [1] | Growth Inhibition V.i (3.2) [2] | Relative Mobility [3]
1 | CC(Cc1ccc(C(F)(F)F)c(F)c1F)CN(C)Cc1ccc(Cl)nc1 (stereo not drawn) [Compound I-10] | 4 (Hypha extension inhibition rate of from 70% to less than 90%) | 4 (Hypha extension inhibition rate of from 70% to less than 90%) | 3
2 | CC(Cc1ccc2c(c1)OC(F)(F)O2)CN(C)Cc1ccc(Cl)nc1 (stereo not drawn) [Compound I-24] | 5 (Hypha extension inhibition rate of 90% or more) | 4 (Hypha extension inhibition rate of from 70% to less than 90%) | 6
